{"source": "patent US5786344A", "about": "“Camptothecin drug combinations and methods with reduced side effects” (priority 1995, dated 1998)", "key": {"[1]": {"assay": "Phase I pharmacokinetics of CPT-11, SN-38 and SN-38G in plasma/urine after 90 min iv infusion", "description": "All patients met the standard laboratory criteria including criteria for adequate organ function. Informed, written consent was obtained from all patients prior to their first dose of CPT-11. The drug was given in 500 cc normal saline by intravenous infusion over 90 minutes on a weekly basis for four doses in a sixweek cycle. […] A second cycle was given with the same dose and schedule used during cycle 1. […] Patients who experienced dose limiting neutropenia were eligible to receive G-CSF at 5 μg/kg/day according to the criteria defined below.\nTo determine drug and metabolite levels, heparinized blood samples obtained on the first cycle of therapy, were centrifuged and the plasma was stored at -70° C. until analysis. CPT (camptothecin, 1 μg/ml, obtained from the National Cancer Institute, Bethesda, Md.) was used as an internal standard. One hundred μl of plasma was extracted with 2 ml of methanol, centrifuged at 2500×g for 10 min and the supernatant was evaporated to dryness. Reconstitution was done with 200 μl of methanol containing 0.1% 10M HCL (pH~2.0). For the estimation of SN-38G, plasma samples were extracted as described above. Prior to reconstitution, the samples were incubated with 1000 U of glucuronidase (Sigma Chemical Co., St. Louis, Mo.) for 2 hours at 37° C.\nAnalysis was done using a C18 column (μBondapak, 10 μm, 3.9×300 mm; Waters Associates, Milford, Mass.) preceded by a Novapak C18 guard column. […] Detection was monitored by a Hitachi F1050 Fluorescence detector (Hitachi Instruments Inc., Naperville, Ill.) with a λex at 375 nm and λem at 566 nm. […] SN-38G concentrations were determined as the increase in SN-38 concentrations following incubation with glucuronidase.\nThe plasma concentration-time data of CPT-11, SN-38 and SN-38G were analyzed by non-compartmental analysis using PCNONLIN (SCI, Lexington, Ky.). The area under the plasma concentration-time curve (AUC) from time zero (predose) to the time of the last quantifiable concentration (AUCt) was calculated by the trapezoidal rule. The AUC extrapolated to time infinity (AUCt →.infin.) was estimated by dividing the last quantifiable concentration by the terminal rate constant obtained by the log-linear regression of the terminal elimination phase. The AUC was the summation of AUCt and AUCt→.infin.. Clearance (CL) was estimated as the ratio of the dose and AUC.\nThe present study employed this principle to obtain an estimate of SN-38 excreted in the bile. Since glucuronidation is the major pathway of elimination of SN-38, the fraction of SN-38 not conjugated would be primarily excreted in the bile. The net biliary concentration of SN-38 would then be a resultant of its formation and elimination. This concentration was expressed as the \"biliary ratio\" which was the ratio of AUC of SN-38 to SN-38G. To control for individual variability in the amount of available drug, the ratio was multiplied by the AUC of CPT-11 to obtain a \"biliary index\" of SN-38.\nThe nonparametric Mann-Whitney test was employed to test for differences in pharmacokinetic outcomes between two patient groups, defined by the worst severity of diarrhea experienced in the first two cycles of CPT-11 treatment. Statistical tests were performed in the Number Cruncher Statistical System (Dr. Jerry Hintz, Kaysville, Utah). A two-sided significance level of less than or equal to 0.05 was considered statistically significant."}, "p-glycoprotein [2]": {"target": "T1, p-glycoprotein (Homo sapiens, UniProt P08183)", "T1 construct": "membrane vesicles from the multidrug resistant breast tumor cell line; endogenous in cells; host or cells: MCF-7/Adr (multidrug resistant human breast cancer cell line), membrane vesicles", "T1 sequence (P08183 whole entry)": "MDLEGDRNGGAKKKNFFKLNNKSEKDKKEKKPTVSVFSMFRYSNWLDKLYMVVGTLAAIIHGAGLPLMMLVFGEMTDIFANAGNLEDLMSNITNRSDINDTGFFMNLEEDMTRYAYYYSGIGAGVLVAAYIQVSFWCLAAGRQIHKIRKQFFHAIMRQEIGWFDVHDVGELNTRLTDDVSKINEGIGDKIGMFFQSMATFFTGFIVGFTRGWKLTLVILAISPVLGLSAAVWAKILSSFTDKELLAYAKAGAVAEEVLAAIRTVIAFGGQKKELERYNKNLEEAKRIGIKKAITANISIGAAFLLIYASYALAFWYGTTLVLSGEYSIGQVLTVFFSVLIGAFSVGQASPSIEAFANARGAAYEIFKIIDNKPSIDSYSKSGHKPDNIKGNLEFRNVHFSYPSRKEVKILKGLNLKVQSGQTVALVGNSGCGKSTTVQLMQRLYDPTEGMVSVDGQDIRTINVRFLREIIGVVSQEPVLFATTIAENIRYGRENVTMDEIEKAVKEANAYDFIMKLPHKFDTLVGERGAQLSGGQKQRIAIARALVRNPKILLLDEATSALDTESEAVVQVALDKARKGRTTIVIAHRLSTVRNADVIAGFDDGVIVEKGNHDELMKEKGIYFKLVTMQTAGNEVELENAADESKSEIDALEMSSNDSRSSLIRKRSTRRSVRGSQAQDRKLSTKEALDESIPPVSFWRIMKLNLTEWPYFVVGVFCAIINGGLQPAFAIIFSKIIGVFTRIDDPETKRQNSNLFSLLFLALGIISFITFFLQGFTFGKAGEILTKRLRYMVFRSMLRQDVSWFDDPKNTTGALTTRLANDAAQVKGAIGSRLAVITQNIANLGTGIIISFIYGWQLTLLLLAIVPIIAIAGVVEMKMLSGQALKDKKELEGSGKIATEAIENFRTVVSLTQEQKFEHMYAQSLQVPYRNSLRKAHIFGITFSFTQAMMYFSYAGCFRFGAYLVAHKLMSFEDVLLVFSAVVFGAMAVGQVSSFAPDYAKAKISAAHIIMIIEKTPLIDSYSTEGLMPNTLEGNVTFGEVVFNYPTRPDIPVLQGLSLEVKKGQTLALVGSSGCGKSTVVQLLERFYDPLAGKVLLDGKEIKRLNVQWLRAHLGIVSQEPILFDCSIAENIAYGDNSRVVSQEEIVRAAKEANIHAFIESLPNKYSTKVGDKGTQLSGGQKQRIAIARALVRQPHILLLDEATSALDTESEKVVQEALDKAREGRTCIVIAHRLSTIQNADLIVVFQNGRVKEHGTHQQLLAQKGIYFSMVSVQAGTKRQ", "assay": "in vitro", "assay_type": "binding", "description": "FIG. 5. […]. Membrane vesicles from the multidrug resistant human breast cancer tumor cell line […] were used. […]."}, "tumors": {"system": "tumors", "conditions": "cited from earlier work"}, "[3]": {"conditions": "nude mice, accumulation in the intestine; cited from earlier work"}, "[4]": {"conditions": "cited from earlier work"}, "[5]": {"conditions": "cited from earlier work", "remark": "listed apart in the source"}, "[6]": {"conditions": "animal studies; cited from earlier work"}, "DNA topoisomerase 1": {"system": "DNA topoisomerase 1", "conditions": "cited from earlier work"}, "[7]": {"conditions": "sodium salt; cited from earlier work"}, "p-glycoprotein [8]": {"system": "p-glycoprotein", "conditions": "mouse, in vivo; cited from earlier work"}, "[9]": {"system": "O . volvulus microfilaria", "conditions": "cited from earlier work"}, "p-glycoprotein [10]": {"system": "p-glycoprotein", "conditions": "rat, in vivo", "description": "Animal protocol: Female Wistar rats (~200 gm) having a permanent catheter installed in the right jugular vein were obtained from Charles River Breeding Laboratories (Wilmington, Mass.).\nThe catheter was flushed with 500 μl of physiologic saline after each drug administration.\nAfter each sample the catheter was flushed with an equal volume of physiologic saline. The samples were immediately centrifuged at 2500×g for 10 minutes and the plasma obtained was stored at -70° C. until analysis.\nData Analysis: The plasma concentration-time profile of the control and pretreated groups of rats were analyzed using non-compartmental methods (PCNONLIN, SCI, Lexington, Ky.). […] The nonparametric Mann-Whitney test was used to test for differences in AUC between the control and pretreated groups."}, "p-glycoprotein [11]": {"system": "p-glycoprotein", "conditions": "cited from earlier work"}, "[12]": {"system": "multi-drug resistance (MDR) P388 cells", "conditions": "cited from earlier work"}, "p-glycoprotein [13]": {"system": "p-glycoprotein", "conditions": "cited from earlier work", "remark": "listed apart in the source"}, "[14]": {"conditions": "gastrointestinal tract or solution; cited from earlier work"}, "glucuronosyltransferase": {"system": "glucuronosyltransferase", "conditions": "cited from earlier work"}}, "note": "Where “and” joins values, the source holds several entries; their conditions need not be identical. Equal entries are not always repeated. Entries after “also recorded” stand apart in the source; their conditions may differ. Where two headings read alike, the source gives them in different places.", "data": [{"smiles": "CCc1c2c(nc3ccc(O)cc13)-c1cc3c(c(=O)n1C2)COC(=O)[C@]3(O)CC", "note": "[SN-38, 7-ethyl-10-hydroxy-camptothecin]", "values": [{"measurement": "increase in AUC SN-38 from secondary peak", "setting": "[1]; in vivo", "result": "~12", "unit": "%"}, {"measurement": "increase of AUC from 100 to 175 mg/m^2", "setting": "[1]; in vivo", "result": 3.7, "unit": "fold"}, {"measurement": "interpatient variability of AUC (percent coefficient of variation)", "setting": "[1]; in vivo", "result": "2-44%"}, {"measurement": "substrate of p-glycoprotein", "setting": "p-glycoprotein [2]", "result": "substrates of p-glycoprotein"}, {"measurement": "inhibition at 100 µM", "setting": "p-glycoprotein [2]; human, mcf-7/adr membrane vesicles", "result": 60, "unit": "%"}, {"measurement": "potency relative to the parent drug CPT-11", "setting": "tumors; in vivo", "result": "600-1000 times"}, {"measurement": "cause of diarrhea", "setting": "[3]", "result": "responsible for the diarrhea"}, {"measurement": "biliary radioactivity excreted over 24 h as", "setting": "[4]; rat, in vivo", "result": 9, "unit": "%"}, {"measurement": "terminal half-life of closed ring forms", "setting": "[5]; human, in vivo", "result": "7.6 to 8.8", "unit": "h"}, {"measurement": "route of excretion", "setting": "[6]", "result": "excreted primarily into bile"}]}, {"smiles": "CC[C@@]1(O)C(=O)OCc2c1cc1n(c2=O)Cc2cc3ccccc3nc2-1", "note": "[Camptothecin]", "values": [{"measurement": "antitumor activity reduction", "setting": "tumors; sodium salt vs closed lactone", "result": "about 10 fold"}, {"measurement": "concentration producing nicks in the DNA", "setting": "DNA topoisomerase 1", "result": "about 0.5 μM"}, {"measurement": "dose-limiting toxicity in early clinical trials", "setting": "[7]", "result": "severe dose-limiting hemorrhagic cystitis and unpredictable myelosuppression"}]}, {"smiles": "CC[C@H](C)[C@H]1O[C@]2(CC[C@@H]1C)C[C@@H]1C[C@@H](C/C=C(\\C)[C@@H](O[C@H]3C[C@H](OC)[C@@H](O[C@H]4C[C@H](OC)[C@@H](O)[C@H](C)O4)[C@H](C)O3)[C@@H](C)/C=C/C=C3\\CO[C@@H]4[C@H](O)C(C)=C[C@@H](C(=O)O1)[C@]34O)O2", "note": "[Ivermectin]", "values": [{"measurement": "sensitivity of p-glycoprotein-disrupted mice", "setting": "p-glycoprotein [8]", "result": "increased sensitivity"}, {"measurement": "cure of strongyloidiasis", "setting": "[9]; single dose", "result": "can cure human strongyloidiasis"}, {"measurement": "reduction of microfilaria in skin and ocular tissues", "setting": "[9]; single oral dose 0.15 to 0.20 mg/kg", "result": "rapid and marked reduction"}, {"measurement": "time to peak plasma concentration", "setting": "[5]; oral", "result": "≤ 4", "unit": "h"}, {"measurement": "half-life", "setting": "[5]; plasma or terminal half-life", "result": "about 10 hours"}]}, {"smiles": "CCc1c2c(nc3ccc(O[C@@H]4O[C@H](C(=O)O)[C@@H](O)[C@H](O)[C@H]4O)cc13)-c1cc3c(c(=O)n1C2)COC(=O)[C@]3(O)CC", "note": "[SN-38G]", "values": [{"measurement": "increase of AUC from 100 to 175 mg/m^2", "setting": "[1]; 1.75 fold dose range", "result": 2.7, "unit": "fold"}, {"measurement": "urinary estimates of SN-38G, fold lower in patients with grade 3-4 diarrhea (average)", "setting": "[1]; grade 3-4 diarrhea", "result": 2.5, "unit": "fold"}, {"measurement": "increase in AUC between 145 and 175 mg/m^2", "setting": "[1]; in vivo", "result": "no increase"}, {"measurement": "Overall Increase in AUC SN-38G", "setting": "p-glycoprotein [10]", "result": 1.93, "unit": "fold"}, {"measurement": "biliary radioactivity excreted over 24 h as", "setting": "[4]; rats, 24 h", "result": 22, "unit": "%"}]}, {"smiles": "C/C=C/C[C@@H](C)C(=O)[C@H]1C(=O)N[C@@H](C(C)C)C(=O)N(C)CC(=O)N(C)[C@@H](CC(C)C)C(=O)N[C@@H](C(C)C)C(=O)N(C)[C@@H](CC(C)C)C(=O)N[C@@H](C)C(=O)N[C@H](C)C(=O)N(C)[C@@H](CC(C)C)C(=O)N(C)[C@@H](CC(C)C)C(=O)N(C)[C@@H](C(C)C)C(=O)N1C", "note": "[SDZ PSC 833]", "values": [{"measurement": "inhibition of / interaction with p-glycoprotein", "setting": "p-glycoprotein [11]", "result": "inhibited p-glycoprotein; also recorded: effective inhibitor; also recorded: effective at inhibiting p-glycoprotein"}, {"measurement": "persistence of p-glycoprotein inhibition", "setting": "p-glycoprotein [11]; single pulse exposure", "result": "still exhibiting inhibition of p-glycoprotein function even two days after a single pulse exposure"}, {"measurement": "p-glycoprotein inhibition relative to comparator", "setting": "p-glycoprotein [11]; vs verapamil, cyclosporine A, progesterone or anthracycline analogues", "result": "more effective than cyclosporine A; also recorded: stronger inhibitors than verapamil"}, {"measurement": "activity relative to cyclosporine A in restoring drug sensitivity", "setting": "[12]", "result": "at least one order of magnitude more active than cyclosporine A"}, {"measurement": "effect of acidic extracellular conditions on inhibitory activity", "setting": "p-glycoprotein [13]; acidic pH", "result": "not affected by acidic extracellular conditions"}, {"measurement": "inhibition of vinblastine transport", "setting": "p-glycoprotein [13]", "result": "the most effective inhibitor"}, {"measurement": "lowest inhibitory concentration", "setting": "p-glycoprotein [13]", "result": "10 ng/ml and 9 nM"}]}, {"smiles": "O.O=P1(N(CCCl)CCCl)NCCCO1", "note": "(centres unmarked) [Cyclophosphamide, 2H-1,3,2-Oxazaphosphorin-2-amine, N,N-bis(2-chloroethyl)tetrahydro-, 2-oxide, monohydrate]", "values": [{"measurement": "stability", "setting": "[14]", "result": "stable in the gastrointestinal tract"}]}, {"smiles": "Cc1c(-c2cnccn2)ssc1=S", "note": "[Oltipraz, 4-methyl-5(2-pyrazinyl)-3H-1,2-dithiole-3-thione]", "values": [{"measurement": "induction of phase II enzymes / glucuronidation", "setting": "glucuronosyltransferase", "result": "inducer of GST and UDP-glucuronosyltransferase"}]}]}
